We go through 25 compounds from patent US9133181B2, “Substituted 6-(4-hydroxy-phenyl)-1H-pyrazolo[3,4-b]pyridine derivatives as kinase inhibitors” (SANOFI, priority 2012, dated 2015).

The inhibition is the relative decrease from the control value, in per cent.

T1 sequence (P05771 1-673 isoform P05771-2): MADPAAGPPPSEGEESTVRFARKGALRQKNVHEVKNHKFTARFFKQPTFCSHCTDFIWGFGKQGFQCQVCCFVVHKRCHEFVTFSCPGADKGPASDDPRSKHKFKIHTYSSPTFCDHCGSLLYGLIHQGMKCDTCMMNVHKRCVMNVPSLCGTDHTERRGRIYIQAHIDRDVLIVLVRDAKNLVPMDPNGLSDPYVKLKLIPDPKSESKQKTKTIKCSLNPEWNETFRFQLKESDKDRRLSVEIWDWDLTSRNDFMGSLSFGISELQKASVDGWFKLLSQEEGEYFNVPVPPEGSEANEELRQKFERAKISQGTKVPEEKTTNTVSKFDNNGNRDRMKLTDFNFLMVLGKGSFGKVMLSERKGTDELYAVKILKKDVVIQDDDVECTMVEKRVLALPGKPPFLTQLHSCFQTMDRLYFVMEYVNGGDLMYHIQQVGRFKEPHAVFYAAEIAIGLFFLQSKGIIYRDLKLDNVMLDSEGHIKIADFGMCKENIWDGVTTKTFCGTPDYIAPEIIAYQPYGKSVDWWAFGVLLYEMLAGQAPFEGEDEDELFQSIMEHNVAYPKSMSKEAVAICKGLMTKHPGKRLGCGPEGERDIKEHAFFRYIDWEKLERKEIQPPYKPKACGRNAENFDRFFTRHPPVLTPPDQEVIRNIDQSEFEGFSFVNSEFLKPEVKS

This experiment addresses T1, human full-length recombinant PKC βII (Homo sapiens, UniProt P05771).
T1 construct: Active human full-length recombinant PKC βII; purchased Invitrogen GmbH, Darmstadt, Germany
Description: Determination of PKC βII inhibition (Caliper mobility shift kinase assay). To be noted: final compound concentration 1.14 μM (±0.15 μM); 60 min incubation at 32° C. Type of experiment: biochemical. On the procedure: Determination of PKC βII Inhibition
PKC βII inhibition was determined according to the following protocol:
Active human full-length recombinant PKC βII and the peptide substrate, Fluorescein-RFARKGSLRQKNV, were purchased from Invitrogen GmbH, Darmstadt, Germany. Adenosine-5′-triphosphate (ATP), bovine serum albumine (BSA), dimethylsulphoxide (DMSO), 4-(2-hydroxyethyl)piperazine-1-ethanesulfonic acid (Hepes), Triton X-100, 1,2-Dioleoyl-sn-glycerol (DAG), L-α-Phosphatidyl-L-serine (PS), calcium chloride (CaCl2), and Pluronic F-68 were purchased from Sigma-Aldrich, Munich, Germany. Magnesium chloride, 1 M sodium hydroxide solution, 1M hydrochloric acid solution and EDTA were obtained from Merck Biosciences, Darmstadt, Germany.
Test compounds were diluted to three times the test concentration in buffer 1 (30 mM Hepes-NaOH, pH 7.4, 0.01% Pluronic F-68 and 3% (v/v) DMSO). The […] enzyme was diluted to a concentration of 30 ng/ml in buffer 2 (30 mM Hepes-NaOH, pH 7.4, 15 mM MgCl2, 150 μM CaCl2, 150 μg/ml PS, 60 μg/ml DAG, and 0.045% (w/v) Triton X-100). The peptide substrate and ATP were diluted to concentrations of 3 μM and 120 μM, respectively, in buffer 2. Two μl of the compound solution were mixed with 2 μl of the diluted enzyme in a 384-well small volume microtiter plate (Greiner, Bio-One, Frickenhausen, Germany), and the kinase reaction was initiated by addition of 2 μl of the solution containing peptide substrate and ATP. After 60 min incubation at 32° C., the reaction was stopped by addition of 20 μl of a solution containing 130 mM Hepes-NaOH, pH 7.4, 0.0195% (v/v) Brij-35, 6.5 mM EDTA, 0.13% chip coating reagent 3 (Caliper Lifescience Inc, Hopkinton, Mass.) and 6.5% (v/v) DMSO. Phosphorylation of the substrate peptide was then detected on a Caliper 3000 instrument essentially as described by Pommereau et al (J. Biomol. Screening 2004, 9(5), 409-416). Separation conditions were as follows: Pressure −0.8 psi, upstream voltage −3000 V, downstream voltage −800 V. Positive controls (buffer 1 instead of compound) and negative controls (buffer 1 instead of compound and buffer 2 instead of kinase solution) were run in parallel on each plate. Fractional turnover (R) was determined as the height of the peak of the phosphorylated peptide product divided by the sum of the unphosphorylated substrate and phosphorylated product peak heights. Percent-inhibition values for the test compounds were determined using the formula % Inhibition=100*(1−(Rcompound−Rnegative control)/(Rpositive control−Rnegative control).
In the following table % inhibition values observed with example compounds at a final concentration of 1.14 μM (±0.15 μM) are listed: […]
As to `Cc1n[nH]c2nc(-c3ccc(O)cc3F)cc(CN3CCNCC3c3cc(F)cc(F)c3)c12` (stereo not shown) [Example 9, 4-{4-[2-(3,5-Difluoro-phenyl)-piperazin-1-ylmethyl]-3-methyl-1H-pyrazolo[3,4-b]pyridin-6-yl}-3-fluoro-phenol], the inhibition at 1.14 µM is 81%.
`CC[C@]1(C)CN(Cc2cc(-c3ccc(O)cc3F)nc3[nH]nc(C)c23)C(C)(C)CN1` [Example 135, 4-[4-((R)-5-Ethyl-2,2,5-trimethyl-piperazin-1-ylmethyl)-3-methyl-1H-pyrazolo[3,4-b]pyridin-6-yl]-3-fluoro-phenol]: the inhibition at 1.14 µM worked out at 106%.
On to `Cc1n[nH]c2nc(-c3ccc(O)cc3)cc(CN3CCNC[C@H]3CC(F)(F)F)c12` [Example 92, 4-{3-Methyl-4-[(R)-2-(2,2,2-trifluoro-ethyl)-piperazin-1-ylmethyl]-1H-pyrazolo[3,4-b]pyridin-6-yl}-phenol], for which the inhibition at 1.14 µM turned out to be 99%.
In the case of `Cc1n[nH]c2nc(-c3ccc(O)cc3F)cc(CN3CCC[C@](C)(N)C3)c12` [Example 147, 4-[4-((S)-3-Amino-3-methyl-piperidin-1-ylmethyl)-3-methyl-1H-pyrazolo[3,4-b]pyridin-6-yl]-3-fluoro-phenol] it was 100%; in that of `Cc1n[nH]c2nc(-c3ccc(O)cc3F)cc(CN3CC(C)(C)NC[C@]3(C)C3CC3)c12` [Example 125, 4-[4-((S)-2-Cyclopropyl-2,5,5-trimethyl-piperazin-1-ylmethyl)-3-methyl-1H-pyrazolo[3,4-b]pyridin-6-yl]-3-fluoro-phenol], 87%.
For the compound `CCC1(CC)CN(Cc2cc(-c3ccc(O)cc3Cl)nc3[nH]nc(C)c23)C(C)(C)CN1` [Example 59, 3-Chloro-4-[4-(5,5-diethyl-2,2-dimethyl-piperazin-1-ylmethyl)-3-methyl-1H-pyrazolo[3,4-b]pyridin-6-yl]-phenol], the inhibition at 1.14 µM is 96%.
For `Cc1n[nH]c2nc(-c3ccc(O)cc3F)cc(CN3C[C@@H](c4ccccc4)NC[C@@H]3C)c12` [Example 99, 3-Fluoro-4-[3-methyl-4-((2S,5R)-2-methyl-5-phenyl-piperazin-1-ylmethyl)-1H-pyrazolo[3,4-b]pyridin-6-yl]-phenol] the value was 92%; for `COCC(=O)N1CC(C)(C)N(Cc2cc(-c3ccc(O)cc3)nc3[nH]nc(C)c23)CC1(C)C` [Example 90, 1-{4-[6-(4-Hydroxy-phenyl)-3-methyl-1H-pyrazolo[3,4-b]pyridin-4-ylmethyl]-2,2,5,5-tetramethyl-piperazin-1-yl}-2-methoxy-ethanone], 99%; for `Cc1n[nH]c2nc(-c3ccc(O)cc3F)cc(CN3C[C@H](C)NCC34CCCC4)c12` [Example 127, 3-Fluoro-4-[3-methyl-4-((S)-8-methyl-6,9-diaza-spiro[4.5]dec-6-ylmethyl)-1H-pyrazolo[3,4-b]pyridin-6-yl]-phenol], 87%.
For `Cc1n[nH]c2nc(-c3ccc(O)cc3F)cc(CN3C[C@H](C)NC[C@H]3C(F)(F)F)c12` [Example 154, 3-Fluoro-4-[3-methyl-4-((2S,5S)-5-methyl-2-trifluoromethyl-piperazin-1-ylmethyl)-1H-pyrazolo[3,4-b]pyridin-6-yl]-phenol] the value was 92%; for `Cc1n[nH]c2nc(-c3ccc(O)cc3F)cc(CN3C[C@@H](C(C)C)NCC3(C)C)c12` [Example 130, 3-Fluoro-4-[4-((R)-5-isopropyl-2,2-dimethyl-piperazin-1-ylmethyl)-3-methyl-1H-pyrazolo[3,4-b]pyridin-6-yl]-phenol], 98%; for `Cc1n[nH]c2nc(-c3ccc(O)cc3F)cc(CN3C[C@H](C)NC[C@@H]3C(F)(F)F)c12` [Example 151, 3-Fluoro-4-[3-methyl-4-((2R,5S)-5-methyl-2-trifluoromethyl-piperazin-1-ylmethyl)-1H-pyrazolo[3,4-b]pyridin-6-yl]-phenol], 90%.
Turning to `COCCN1CC(C)(C)N(Cc2cc(-c3ccc(O)cc3)nc3[nH]nc(C)c23)CC1C` (stereo not shown) [Example 63, 4-{4-[4-(2-Methoxy-ethyl)-2,2,5-trimethyl-piperazin-1-ylmethyl]-3-methyl-1H-pyrazolo[3,4-b]pyridin-6-yl}-phenol], the inhibition at 1.14 µM came out at 97%.
On to `CNC1CCN(Cc2cc(-c3ccc(O)cc3)nc3[nH]nc(C)c23)C1` (stereo not shown) [Example 93, 4-[3-Methyl-4-(3-methylamino-pyrrolidin-1-ylmethyl)-1H-pyrazolo[3,4-b]pyridin-6-yl]-phenol], for which the inhibition at 1.14 µM came to 81%.
For `Cc1n[nH]c2nc(-c3ccc(O)cc3)cc(CN3CCNCC3c3ccc(C(C)C)cc3)c12` (stereo not shown) [Example 45, 4-{4-[2-(4-Isopropyl-phenyl)-piperazin-1-ylmethyl]-3-methyl-1H-pyrazolo[3,4-b]pyridin-6-yl}-phenol] the value was 54%.
In the case of `CCC1(CC)CNC(C)(C)CN1Cc1cc(-c2ccc(O)cc2F)nc2[nH]nc(C)c12` [Example 32, 4-[4-(2,2-Diethyl-5,5-dimethyl-piperazin-1-ylmethyl)-3-methyl-1H-pyrazolo[3,4-b]pyridin-6-yl]-3-fluoro-phenol] it was 101%; in that of `Cc1n[nH]c2nc(-c3ccc(O)cc3F)cc(CN3CC4(CCCC4)NCC3(C)C)c12` [Example 36, 4-[4-(8,8-Dimethyl-6,9-diaza-spiro[4.5]dec-9-ylmethyl)-3-methyl-1H-pyrazolo[3,4-b]pyridin-6-yl]-3-fluoro-phenol], 94%.
As to `COCCCN1CC(C)(C)N(Cc2cc(-c3ccc(O)cc3F)nc3[nH]nc(C)c23)CC1(C)C` [Example 67, 3-Fluoro-4-{4-[4-(3-methoxy-propyl)-2,2,5,5-tetramethyl-piperazin-1-ylmethyl]-3-methyl-1H-pyrazolo[3,4-b]pyridin-6-yl}-phenol], the inhibition at 1.14 µM was determined as 103%.
Take `Cc1n[nH]c2nc(-c3ccc(O)cc3)cc(CN3C[C@H](C)NCC3(C)C)c12` [Example 131, 4-[3-Methyl-4-((S)-2,2,5-trimethyl-piperazin-1-ylmethyl)-1H-pyrazolo[3,4-b]pyridin-6-yl]-phenol]: the inhibition at 1.14 µM was 103%.
Turning to `CCC1(CC)CN(Cc2cc(-c3ccc(O)cc3F)nc3[nH]nc(C)c23)C(C)(C)CN1` [Example 22, 4-[4-(5,5-Diethyl-2,2-dimethyl-piperazin-1-ylmethyl)-3-methyl-1H-pyrazolo[3,4-b]pyridin-6-yl]-3-fluoro-phenol], the inhibition at 1.14 µM came to 89%.
Consider `Cc1n[nH]c2nc(-c3ccc(O)cc3F)cc(CN3CC(C)NCC3(C)C)c12` (stereo not shown) [Example 11, 3-Fluoro-4-[3-methyl-4-(2,2,5-trimethyl-piperazin-1-ylmethyl)-1H-pyrazolo[3,4-b]pyridin-6-yl]-phenol], for which the inhibition at 1.14 µM is 104%.
In the case of `Cc1n[nH]c2nc(-c3ccc(O)cc3F)cc(CN3CC(C)(C)N(C[C@H]4COC(C)(C)O4)CC3(C)C)c12` [Example 69, 4-{4-[4-((S)-2,2-Dimethyl-[1,3]dioxolan-4-ylmethyl)-2,2,5,5-tetramethyl-piperazin-1-ylmethyl]-3-methyl-1H-pyrazolo[3,4-b]pyridin-6-yl}-3-fluoro-phenol] it was 92%; in that of `Cc1n[nH]c2nc(-c3ccc(O)cc3)cc(CN3CCNCC34CCCC4)c12` [Example 47, 4-[4-(6,9-Diaza-spiro[4.5]dec-6-ylmethyl)-3-methyl-1H-pyrazolo[3,4-b]pyridin-6-yl]-phenol], 101%.
For `COCC(=O)N1CC(C)(C)N(Cc2cc(-c3ccc(O)cc3F)nc3[nH]nc(C)c23)CC1(C)C` [Example 75, 1-{4-[6-(2-Fluoro-4-hydroxy-phenyl)-3-methyl-1H-pyrazolo[3,4-b]pyridin-4-ylmethyl]-2,2,5,5-tetramethyl-piperazin-1-yl}-2-methoxy-ethanone] the value was 96%; for `CCC1(C)CN(Cc2cc(-c3ccc(O)cc3F)nc3[nH]nc(C)c23)C(C)(C)CN1` (stereo not shown) [Example 21, 4-[4-(5-Ethyl-2,2,5-trimethyl-piperazin-1-ylmethyl)-3-methyl-1H-pyrazolo[3,4-b]pyridin-6-yl]-3-fluoro-phenol], 93%.
